Earlier results in patent US20170273935A1, “CINEOLE-CONTAINING COMPOSITION FOR NASAL APPLICATION” (Maria Clementine Martin Klosterfrau Vertriebsgesellschaft …, priority 2014, published 2017).

solubility in water: insoluble in water
SMILES: CC12CCC(CC1)C(C)(C)O2 [1,8-cineole, 1,3,3-trimethyl-2-oxabicyclo[2.2.2]octane]
